“Also recorded” adds a separate entry of the source. Like-named read-outs stand apart in the source and are kept apart here.

One series concerns CEM-WT (CEM-CCRF) cells. The series can be described thus: Calcein-AM fluorescence accumulation assay, flow cytometry, CEM-WT cells. The settings on record: antiviral drug at 100 μM, calcein-AM 0.25 μM. Format: cell-based, human.
The target of series [1] is T1, MRP1 (ABCC1), CEM-MRP1 cells (Homo sapiens, UniProt P33527). The series can be described thus: Calcein-AM fluorescence accumulation assay, flow cytometry, CEM-MRP1 cells. It counts as cell-based. The settings on record: antiviral drug at 100 μM, calcein-AM 0.25 μM.
The subject of the next series is CEM-WT cells. The series can be described thus: [3H]raltegravir cellular accumulation ratio. Format: in vitro ADME, human. The settings on record: 30 min; for Effect of 100 μM cold drug (cis inhibitor) on [3H]raltegravir CAR / CAR of raltegravir: [3H]raltegravir 1 μM; for Effect of efflux inhibitor on [3H]raltegravir CAR: MK571 100 μM, XR9051 10 μM or 1 μM (Figure 1a).

The target in series [2] is T2, P-gp (ABCB1), CEM-P-gp cells (Homo sapiens, UniProt P08183). The series can be described thus: [3H]raltegravir cellular accumulation ratio. The settings on record: 30 min. Format: in vitro ADME.
The target in series [3] is T1, MRP1 (ABCC1), CEM-MRP1 cells. The series can be described thus: [3H]ritonavir cellular accumulation ratio. Format: in vitro ADME. The settings on record: for Increase of the CAR of [3H]ritonavir by 100 μM cold drug: [3H]ritonavir 1 μM, 30 min.
Series [4] has the same target. The series can be described thus: [3H]raltegravir cellular accumulation ratio. The settings on record: 30 min; for Effect of 100 μM cold drug (cis inhibitor) on [3H]raltegravir CAR: [3H]raltegravir 1 μM.
Series [5] deals with P-gp, primary CD3+CD4+ T cells (Homo sapiens, UniProt P08183). Format: in vitro ADME. The settings on record: XR9051 1 μM, P = 0.017.
The test system of another series is primary CD4+ T cells. The series can be described thus: Calcein accumulation/efflux in primary CD4+ T cells, flow cytometry. Format: cell-based, human.
The target in series [6] is T2, P-gp (ABCB1), CEM-P-gp cells. The series can be described thus: [3H]ritonavir cellular accumulation ratio. Format: in vitro ADME. The settings on record: reversan 10 μM, P = 0.0021.

T1 sequence (P33527 whole entry): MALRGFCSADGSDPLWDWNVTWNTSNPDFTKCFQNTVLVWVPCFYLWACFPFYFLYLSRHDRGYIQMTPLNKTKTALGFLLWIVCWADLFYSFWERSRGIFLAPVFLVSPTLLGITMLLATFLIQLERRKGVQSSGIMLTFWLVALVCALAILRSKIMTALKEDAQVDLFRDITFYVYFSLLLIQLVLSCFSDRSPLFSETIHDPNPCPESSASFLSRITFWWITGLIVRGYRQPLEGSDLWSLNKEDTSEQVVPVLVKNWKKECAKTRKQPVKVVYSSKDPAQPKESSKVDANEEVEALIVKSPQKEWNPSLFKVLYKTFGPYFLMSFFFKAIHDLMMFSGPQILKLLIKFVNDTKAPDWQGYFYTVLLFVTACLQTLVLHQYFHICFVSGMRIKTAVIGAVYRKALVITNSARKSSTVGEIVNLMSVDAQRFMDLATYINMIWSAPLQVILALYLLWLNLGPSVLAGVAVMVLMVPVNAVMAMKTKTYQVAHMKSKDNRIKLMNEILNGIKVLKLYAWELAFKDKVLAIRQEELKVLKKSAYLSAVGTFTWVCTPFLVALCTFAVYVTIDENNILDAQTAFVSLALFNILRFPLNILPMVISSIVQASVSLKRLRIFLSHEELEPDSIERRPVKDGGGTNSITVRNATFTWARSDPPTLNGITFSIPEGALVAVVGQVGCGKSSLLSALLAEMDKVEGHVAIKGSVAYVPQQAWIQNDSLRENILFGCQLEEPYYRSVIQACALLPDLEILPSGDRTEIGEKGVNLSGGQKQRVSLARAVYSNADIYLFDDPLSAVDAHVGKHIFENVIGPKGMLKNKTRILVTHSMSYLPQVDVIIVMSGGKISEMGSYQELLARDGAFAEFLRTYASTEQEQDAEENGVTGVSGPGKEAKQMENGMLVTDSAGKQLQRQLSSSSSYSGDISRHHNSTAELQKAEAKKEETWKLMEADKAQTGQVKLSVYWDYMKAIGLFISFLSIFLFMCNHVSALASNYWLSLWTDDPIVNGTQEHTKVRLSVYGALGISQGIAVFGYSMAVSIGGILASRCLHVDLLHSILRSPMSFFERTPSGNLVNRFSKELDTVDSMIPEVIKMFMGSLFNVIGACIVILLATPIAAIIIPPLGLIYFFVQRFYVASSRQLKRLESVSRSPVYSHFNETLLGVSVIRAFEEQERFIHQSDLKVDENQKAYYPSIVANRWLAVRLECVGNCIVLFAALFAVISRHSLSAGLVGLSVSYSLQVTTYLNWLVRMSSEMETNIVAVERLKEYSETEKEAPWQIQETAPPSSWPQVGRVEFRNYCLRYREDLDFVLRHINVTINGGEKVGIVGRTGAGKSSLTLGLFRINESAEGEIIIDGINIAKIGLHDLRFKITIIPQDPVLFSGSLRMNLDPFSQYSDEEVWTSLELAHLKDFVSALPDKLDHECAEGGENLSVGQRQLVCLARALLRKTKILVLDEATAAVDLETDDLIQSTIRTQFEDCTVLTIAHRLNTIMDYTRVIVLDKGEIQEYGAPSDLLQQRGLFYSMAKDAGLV
T2 sequence (P08183 whole entry): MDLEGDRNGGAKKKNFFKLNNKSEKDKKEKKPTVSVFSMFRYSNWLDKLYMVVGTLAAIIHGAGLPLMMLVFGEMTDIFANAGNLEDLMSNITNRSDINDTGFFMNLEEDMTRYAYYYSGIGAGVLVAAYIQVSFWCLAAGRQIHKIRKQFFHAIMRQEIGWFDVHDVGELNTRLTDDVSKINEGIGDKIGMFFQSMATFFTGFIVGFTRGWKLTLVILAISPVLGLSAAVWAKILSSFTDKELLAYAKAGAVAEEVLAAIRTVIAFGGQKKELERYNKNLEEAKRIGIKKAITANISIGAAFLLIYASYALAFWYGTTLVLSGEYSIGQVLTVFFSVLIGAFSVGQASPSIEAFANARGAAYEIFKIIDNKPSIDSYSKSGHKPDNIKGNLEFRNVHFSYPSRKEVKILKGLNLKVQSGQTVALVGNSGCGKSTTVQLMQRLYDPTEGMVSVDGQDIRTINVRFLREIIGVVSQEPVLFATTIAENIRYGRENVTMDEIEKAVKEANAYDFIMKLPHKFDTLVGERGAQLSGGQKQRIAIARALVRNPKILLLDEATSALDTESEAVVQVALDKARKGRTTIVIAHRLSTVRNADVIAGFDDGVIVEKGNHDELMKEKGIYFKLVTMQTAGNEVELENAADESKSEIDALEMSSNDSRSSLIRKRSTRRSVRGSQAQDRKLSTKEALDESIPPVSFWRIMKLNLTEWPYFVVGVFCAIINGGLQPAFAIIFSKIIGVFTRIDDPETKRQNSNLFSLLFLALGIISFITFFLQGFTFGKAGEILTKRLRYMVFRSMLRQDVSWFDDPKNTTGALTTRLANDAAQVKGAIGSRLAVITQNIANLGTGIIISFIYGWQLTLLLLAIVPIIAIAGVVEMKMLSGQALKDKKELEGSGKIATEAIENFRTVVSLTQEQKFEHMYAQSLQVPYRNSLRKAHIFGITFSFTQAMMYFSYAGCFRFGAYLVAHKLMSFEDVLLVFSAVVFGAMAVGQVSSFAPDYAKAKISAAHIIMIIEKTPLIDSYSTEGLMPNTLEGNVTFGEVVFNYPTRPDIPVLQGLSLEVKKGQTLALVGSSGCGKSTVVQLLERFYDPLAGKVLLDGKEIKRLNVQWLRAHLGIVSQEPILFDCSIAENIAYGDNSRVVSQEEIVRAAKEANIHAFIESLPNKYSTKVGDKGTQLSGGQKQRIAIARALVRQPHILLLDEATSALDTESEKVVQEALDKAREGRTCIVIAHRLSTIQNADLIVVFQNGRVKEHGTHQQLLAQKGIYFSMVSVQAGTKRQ
Chain of P-gp, primary CD3+CD4+ T cells (P08183 whole entry): as above

For the molecule `Cc1ccnc2c1NC(=O)c1cccnc1N2C1CC1` [nevirapine], the “Fluorescence ratio (MFI treated/MFI mock cells), calcein” value in the series with CEM-WT (CEM-CCRF) cells is 0.92; in [1] it was 1.23.

`Cc1nnc(C(=O)NC(C)(C)c2nc(C(=O)NCc3ccc(F)cc3)c(O)c(=O)n2C)o1` [raltegravir]: the “Effect of 100 μM cold drug (cis inhibitor) on [3H]raltegravir CAR” value (in the series on CEM-WT cells; in [4] (CEM-MRP1)) was “no changes” throughout. Besides, the CAR of raltegravir with CEM-WT cells (accumulation experiments (Figure 1b), normalized to 100%) was determined as 3.04 ± 0.62; in the series on CEM-WT cells (time-course (Figure 1a)), 3.12 ± 0.12; in series [2] (CEM-P-gp, [3H]raltegravir 1 μM, co-incubation with XR9051 1 μM, P = 0.0025), 2.46 ± 0.10. Also, in [2] (untreated CEM-P-gp), the “Reduction in intracellular raltegravir accumulation with respect to CEM-WT” value is on record as 52%. Moreover, in series [2] (untreated cells, P < 0.0001), the “CAR raltegravir P-gp/CAR raltegravir WT” value came out at 0.48. Besides, in series [3], the “Increase of the CAR of [3H]ritonavir by 100 μM cold drug” value was “did not inhibit”. Moreover, the “Reduction in intracellular raltegravir accumulation with respect to control CEM-WT cells” value in series [4] (untreated CEM-MRP1) was above 30%. The “CAR raltegravir MRP1/CAR raltegravir WT” value in [4] (untreated cells, P < 0.0001) worked out at 0.64.

For `CC(C)CN(C[C@@H](O)[C@H](Cc1ccccc1)NC(=O)O[C@H]1CCOC1)S(=O)(=O)c1ccc(N)cc1` [amprenavir], the “Fluorescence ratio (MFI treated/MFI mock cells), calcein” value is 0.87 with CEM-WT (CEM-CCRF) cells and 3.49 in series [1].

With `CC(C)c1nc(CN(C)C(=O)N[C@H](C(=O)N[C@@H](Cc2ccccc2)C[C@H](O)[C@H](Cc2ccccc2)NC(=O)OCc2cncs2)C(C)C)cs1` [ritonavir], the “Effect of 100 μM cold drug (cis inhibitor) on [3H]raltegravir CAR” value (in the series on CEM-WT cells; in series [4] (CEM-MRP1)) was “did not affect” each time. The “Increase of the CAR of [3H]ritonavir by 100 μM cold drug” value in [3] is on record as 25%.

Take `CN(C)C(=O)CCSC(SCCC(=O)O)c1cccc(/C=C/c2ccc3ccc(Cl)cc3n2)c1` (stereo not shown) [MK571]: the “Effect of efflux inhibitor on [3H]raltegravir CAR” value with CEM-WT cells is reported as “did not affect”.

XR9051: the “Effect of efflux inhibitor on [3H]raltegravir CAR” value was “did not significantly alter; also recorded: did not affect” in the series on CEM-WT cells; “significantly increased accumulation” in series [2] (CEM-P-gp, XR9051 10 μM or 1 μM (Figure 1a)); “neither MK571 nor XR9051 affected” in [4] (CEM-MRP1, MK571 100 μM, XR9051 10 μM). The “Effect of XR9051 on reduced [3H]raltegravir accumulation” value in series [5] (CD3+CD4+P-gp^high cells) is given as “significantly reverse this effect”; in series [5] (total unsorted PBMCs), “could also be reversed”. Also, the “Effect on activity of P-gp^high cells (calcein efflux)” value in the series on primary CD4+ T cells (non-stimulated CD4+ cells, XR9051 1 μM during the 2 h efflux time) is “remarkably inhibited”.

Consider `O=C1Nc2ccc(Cl)cc2[C@@](C#CC2CC2)(C(F)(F)F)O1` [efavirenz], for which the “Fluorescence ratio (MFI treated/MFI mock cells), calcein” value was 0.94 in the series on CEM-WT (CEM-CCRF) cells and 4.38 in [1].

Regarding `COC(=O)N[C@H](C(=O)N[C@@H](Cc1ccccc1)[C@@H](O)CN(Cc1ccc(-c2ccccn2)cc1)NC(=O)[C@@H](NC(=O)OC)C(C)(C)C)C(C)(C)C` [atazanavir], the “Fluorescence ratio (MFI treated/MFI mock cells), calcein” value is 0.63 in the series on CEM-WT (CEM-CCRF) cells and 2.54 in series [1].

In the case of `CC(C)(C)NC(=O)[C@@H]1C[C@@H]2CCCC[C@@H]2CN1C[C@@H](O)[C@H](Cc1ccccc1)NC(=O)[C@H](CC(N)=O)NC(=O)c1ccc2ccccc2n1` [saquinavir], the “Fluorescence ratio (MFI treated/MFI mock cells), calcein” value is reported as 0.77 in the series with CEM-WT (CEM-CCRF) cells and 3.94 in series [1]. For the same molecule, the “Effect of 100 μM cold drug (cis inhibitor) on [3H]raltegravir CAR” value in the series with CEM-WT cells was “did not affect”; in series [2] (CEM-P-gp, [3H]raltegravir 1 μM) it was “significantly competed with raltegravir efflux”; in series [4] (CEM-MRP1), “did not affect”.

`CC(C)(C)NC(=O)[C@@H]1CN(Cc2cccnc2)CCN1C[C@@H](O)C[C@@H](Cc1ccccc1)C(=O)N[C@H]1c2ccccc2C[C@H]1O` [indinavir]: the “Fluorescence ratio (MFI treated/MFI mock cells), calcein” value was 1.28 in the series on CEM-WT (CEM-CCRF) cells and 2.11 in series [1].

On to `O=C(NCCCN1CCOCC1)c1cnn2c(-c3ccccc3)cc(-c3ccccc3)nc12` [reversan], for which the “Effect of reversan on reduced [3H]ritonavir accumulation” value is listed as “reversed in part” in series [3] (reversan 10 μM, P = 0.037) and “reversed in part” in [6].

Turning to `COc1ccc2c3c([nH]c2c1)[C@H](CC(C)C)N1C(=O)[C@H](CCC(=O)OC(C)(C)C)NC(=O)[C@@H]1C3` [Ko143], the “Inhibition of calcein accumulation” value in the series on primary CD4+ T cells (primary CD4+ T cells, low doses (<1 μM) of Ko143, data not shown) was “null inhibition”.

Consider `Cc1cccc(C)c1OCC(=O)N[C@@H](Cc1ccccc1)[C@@H](O)C[C@H](Cc1ccccc1)NC(=O)[C@H](C(C)C)N1CCCNC1=O` [lopinavir], for which the “Fluorescence ratio (MFI treated/MFI mock cells), calcein” value in the series with CEM-WT (CEM-CCRF) cells was 0.60; in [1], 4.20.

These data come from PMC5031918 (Journal of Antimicrobial Chemotherapy, 2016).
